Patent publication US20040059104A1, “Nucleotide mimics and their prodrugs” (priority 2002, published 2004)
pIC50, pKi: −log10 of the molar value.

Columns and labels:
CEM-SS cells = test: Compound toxicity in CEM-SS cells (MTS staining); format: cell-based; conditions: read-out: CEM-SS TC50
Protocol: (§1) ollowing paper: Structure-Activity and Cross-Resistance unodeficiency Virus Type 1-Specific ckheit, Jr. et al., Antimicrobial Agents and s were evaluated in CEM-SS cell cultures V-1RF at an MOI of approximately 0.01. At he soluble tetrazolium-based dye MTS viability and quantify compound toxicity of metabolically active cells to yield a soluble analysis of cell viability and compound
(§2) At assay termination, the assay plates were stained with the soluble tetrazolium-based dye MTS (CellTiter Reagent Promega) to determine cell viability and quantify compound toxicity. MTS is metabolized by the mitochondrial enzymes of metabolically active cells to yield a soluble formazan product, allowing the rapid quantitative analysis of cell viability and compound cytotoxicity. […] At termination of the assay, 20 μL of MTS reagent was added per well. The microtiter plates were then incubated 4-6 hrs at 37° C. for the HIV cytoprotection assay; the incubation intervals were chosen based on empirically determined times for optimal dye reduction. Adhesive plate sealers were used in place of the lids, the sealed plate was inverted several times to mix the soluble formazan product and the plate was read spectrophotometrically at 490 nm with a Molecular Devices Vmax plate reader.

Escherichia coli = test: Antimicrobial assay, minimal inhibitory concentration; format: cell-based
Protocol: To examine the antimicrobial potential of the nucleotide mimics of the present invention an assay was employed that allowed the screening of a large number of compounds simultaneously. The type of bacteria chosen to screen the compounds are organisms associated with human disease and represent major groups of bacteria based on their structure and metabolism. Bacterial cultures of Escherichia coli and Staphylococcus aureus were incubated overnight at 37° C. in a shaker incubator. A lawn of each overnight bacterial culture was made by plating […] of bacteria on agar plates containing Nutrient Broth. Immediately after plating, sterile blank paper discs were put on top of the lawn and a compound was applied to each blank paper disc. Plates were then incubated overnight and examined for the inhibition of bacterial growth the following day. […] The plates were incubated overnight at 37° C. and then examined spectrophotometrically at 600 nm to determine the minimum concentration of each compound that inhibited replication of bacteria as determined by no increase in absorbance at 600 nm.

HIV-1RF = test: Anti-HIV-1 cytoprotection assay in CEM-SS cells; format: cell-based; conditions: CEM-SS cells infected with HIV-1RF, MOI approximately 0.01, 6 days, MTS; read-out: CEM-SS IC50 (Anti-HIV Screening)
Protocol: as §1
Efficacy Evaluation in CEM-SS Cells Anti-HIV-1 Cytoprotection Assay
Cell Preparation—CEM-SS cells were passaged in T-75 flasks prior to use in the antiviral assay. On the day preceding the assay, the cells were split 1:2 to assure they were in an exponential growth phase at the time of infection. Total cell and viability quantification was performed using a hemacytometer and trypan blue exclusion. Cell viability was greater than 95% for the cells to be utilized in the assay. The cells were resuspended at 5×10^4 cells/ml in tissue culture medium and added to the drug-containing microtiter plates in a volume of 50 μl.
Virus Preparation—The virus used for these tests was the lymphocytropic virus strain HIV-1RF. This virus was obtained from the NIH AIDS Research and Reference Reagent Program and was grown in CEM-SS cells for the production of stock virus pools. For each assay, a pre-titered aliquot of virus was removed from the freezer (−80° C.) and allowed to thaw slowly to room temperature in a biological safety cabinet. The virus was resuspended and diluted into tissue culture medium such that the amount of virus added to each well in a volume of 50 μl was the amount determined to give between 85 to 95% cell killing at 6 days post-infection.
as §2

[1] = biological target: T1, HIV Reverse Transcriptase (Type B, 66 kDa subunit) (Human immunodeficiency virus type 1 group M subtype B, UniProt P04585); test: HIV Reverse Transcriptase inhibition assays (RNA-directed DNA polymerization, PicoGreen fluorescence); format: biochemical; conditions: Table 1; template (homopolymer or heteropolymer RNA) not stated; read-out: Ki, Inhibition of HIV Reverse Transcriptase by Nucleotide Mimics
T1 construct: purified HIV Reverse Transcriptase (Type B, 66 kDa subunit)
Protocol: The assays employed to measure inhibition of HIV Reverse Transcriptase (HIV RT) catalyzed/RNA-directed DNA polymerization are described below. The effectiveness of the compounds of the present invention as inhibitors of HIV RT-catalyzed DNA polymerization was measured in the following assays.
This assay was used to measure the ability of the nucleotide mimics of the present invention to inhibit the enzymatic synthesis of complementary strand DNA from a DNA-primed template of homopolymeric RNA. This assay is a modification of a published procedure (Seville, et al., “Fluorometric Assay for DNA Polymerases and Reverse Transcriptase”, BioTechniques 1996, 21, 664-72).
The compounds were tested at various concentrations up to 500 μM final concentration. DNA polymerase activity was measured in a reaction buffer containing primed-RNA template and dTTP diluted to appropriate concentrations in assay buffer. Nucleotide mimics of the present invention were diluted in buffer and pipetted into the wells of a 96-well plate. The reaction was initiated by addition of enzyme and allowed to proceed at 37° C. for 10 minutes. The reaction was quenched by addition of 5 μL 0.2 M EDTA, pH 8.0.
200 μL of diluted PicoGreen dsDNA Quantitation Reagent (Molecular Probes, Inc, Eugene, Oreg.) was added to each well of a 96-well plate and incubated at room temperature for 5 minutes. Plate wells were read on a microplate fluorometer (Molecular Devices Corp., Sunnyvale, Calif.). The wells were excited at 480 nm and the fluorescence emission intensity (RFU) was measured at 520 nm. The percentage of inhibition was calculated according to the following equation:
% Inhibition=[1−(RFU in test reaction−RFU in blank)/(RFU in control reaction−RFU in blank)]×100.
Each inhibitor was titrated over an appropriate range of concentrations, and inhibition constants were determined using the following equations:
v=Vm[S]/(Km(1+[I]/Ki)+[S])
Certain compounds of the present invention were also tested to determine their ability to inhibit HIV RT-catalyzed DNA polymerization on a heteropolymeric primed-RNA template in the presence of all four natural deoxynucleotide triphosphate (dNTP) substrates. This assay is a modification of a published procedure (Parker et al., “Mechanism of Inhibition of Human Immunodeficiency Virus Type 1 Reverse Transcriptase and Human DNA Polymerases α, β, and γ by the 5′-Triphosphates of Carbovir,3′-Azido-3′-deoxythymidine,2′-3′-Dideoxyguanosine, and 3′-Deoxythymidine”, J. Biol. Chem. 1991, 266 (3), 1754-62).
HIV RT DNA polymerase activity was measured in a reaction buffer containing primed-ribosomal RNA template and dNTPs diluted to appropriate concentrations in assay buffer and pipetted into 1.5 mL microcentrifuge tubes. Nucleotide mimics of the present invention were diluted in buffer and tested at various concentrations up to 5 μM final concentration. The reaction was initiated by addition of enzyme and allowed to proceed at 42° C. for 60 to 90 minutes. The reaction was quenched by addition of 12 μL 0.2 M EDTA, pH 8.0.
50 μL each of reaction was transferred to the well of a 96-well plate (in duplicate). 200 μL of diluted PicoGreen dsDNA Quantitation Reagent was added to each well of a 96-well plate and incubated at room temperature for 5 minutes. Plate wells were read on a microplate fluorometer. The wells were excited at 480 nm and the fluorescence emission intensity (RFU) was measured at 520 nm. The percentage of inhibition and inhibition constants […] were determined for representative compounds as described above.

CEM cells = test: Cell uptake procedure (intracellular nucleotide levels by HPLC); format: cell-based, Human; conditions: 24 hour incubation, limit of detection about 5 pmol/10^6 cells
Protocol: CEM cells were resuspended in RPMI at 1×10^7 cells/mL. The appropriate amount of each compound was added to well and then 0.5 ml of the cells was aliquoted into the appropriate number of wells of a 24-well plate and incubated the cells at 37° C. Cells were harvested after 24 hours of incubation. To harvest cells they were transferred to a microfuge tube and spun for one minute at high speed. The samples were washed in PBS containing 1 mg/ml BSA and re-centrifuged. The PBS was then aspirated and 200 μL of ice-cold 60% methanol was added to extract the nucleotides. The extracts were incubated overnight at −20° C. The next day the samples were spun at high speed in a microfuge for 20 minutes and the supernatant transferred to clean tubes and dried in the speed vac. After drying the samples were resuspended in 50 μl, filtered, and the samples then directly injected onto the HPLC. The nucleotides were analyzed using reverse phase HPLC with ion-pairing agents for separation of the nucleotides. The procedure was adapted from the following paper: Furman, et al., Proc. Natl. Acad. Sci. USA 1986, 83, 8333-8337.
The limit of detection was estimated to be 5 pmol/10^6 cells.

in vitro [2] = conditions: bovine, serum
Protocol: Typically the total volume used for the experiment was 500 μl. The final concentrations of the reaction components were as follows:
The reacton mixtures were made up and incubated at 37° C. At appropriate times aliquots of 25 μl were removed and added to 65 μl ice-cold methanol. These solutions were our at −20° C. and typically overnight. After incubation samples were inutes at high speed in a microcentrifuge. The supernatant was nd the extract was dried under vacuum in a LabConco Centrivap Concentrator. The dried extracts were resuspended in dH2O and filtered to remove particulate before analysis on reverse phase HPLC.
The reverse phase HPLC columns used for the analysis were either a Phenomenex C18 Aqua column (2×100 mm) or the Phenomenex C18 Aqua column (3×150 mm) used with the appropriate guard column. The HPLC was run at 0.2 ml/min (for the 2×100 mm column) or at 0.5 ml/min (for the 3×150 mm column) with the following buffer system: 5 mM tetrabutylammonium acetate, 50 mM ammonium phosphate, and an acetonitrile gradient running from 5% up to as high as 60%. The amount of remaining parent compound at each time point was used to determine the half-life of the compound. […] Unmodified nucleoside triphosphates were used as positive controls.

in vitro [3] = conditions: human
Protocol: The stability of compounds in cell extracts was examined as follows:
Cell lysis buffer was added to cell pellets and the cells frozen and thawed 3× using dry ice. The lysis buffer (LB) was composed of the following: 50 mM Tris-HCl, pH 7.4 (100 μl/ml 10× stock), 20% glycerol (200 μl/ml), and 0.5% Triton X-100 (5 μl/ml). 100 μl of LB was added to each microfuge tube containing 10^7 frozen CEM cells. After the cells were lysed the extracts were centrifuged at high speed in a microcentrifuge for 5 minutes and the clarified cell extract transferred to a new tube. The cell stability reaction mixtures contained concentrations of buffer, magnesium, nucleotide, and cell extract as shown below:
The reaction mixtures were incubated at 37° C. At each time point, including at time zero, 12.5 μl aliquots were added to 40 μl ice-cold methanol. […] The samples were incubated in methanol for at least 60 minutes and typically overnight at −20° C. prior to further processing. The cell extracts were centrifuged at high speed in refrigerated microcentrifuge for 20 minutes and the supernatant transferred to a new tube. The extract was then dried under vacuum in a LabConco Centrivap Concentrator. The samples were then resuspended in 40 or 50 μl dH2O, filtered to remove any particulate, and analyzed by reverse phase HPLC.
The reverse phase HPLC columns used for the analysis were either a Phenomenex C18 Aqua column (2×100 mm) or the Phenomenex C18 Aqua column (3×150 mm) used with the appropriate guard column. The HPLC flow rate was either 0.2 ml/min (for the 2×100 mm column) or 0.5 ml/min (for the 3×150 mm column) with the following buffer system: 5 mM tetrabutylammonium acetate, 50 mM ammonium phosphate, and an acetonitrile gradient running from 5% up to as high as 60%. The amount of remaining parent compound at each time point was used to determine the half-life of the compound. […] Unmodified nucleoside triphosphates were used as positive controls.

[4] = overnight at 37° C., tested 0-200 μg/ml, NA = Not active
[5] = value in brackets beside the μg/ml value

In the case of “3′-Azido-3′-deoxythymidine 5′-α-P-borano-β,γ-difluoromethylene-γ-O-methyltriphosphate [Compound 40]”, the CC50 (CEM-SS cells) was greater than 200 µM, the “E. coli MIC” value (Escherichia coli; [4]) was 25 to 50 µg/mL and the “E. coli MIC” value (Escherichia coli; [5]) was “(40-80) uM”. It also gave a pIC50 (HIV-1RF) of 5.40 and a pKi [1] of 7.16.

“3′-Azido-3′-deoxythymidine 5′-α-P-borano-β,γ-diluoromethylene-γ-O-(4-nitrophenyl)triphosphate [Compound 43]” showed a CC50 (CEM-SS cells) of 125 µM and a pIC50 (HIV-1RF) of 5.19.

With “3′-Azido-3′-deoxythymidine 5′-α-P-borano-γ-O-(S-pivaloyl-2-thioethyl)-β,γ-(difluoromethylene)triphosphate [Compound 70]” the CC50 (CEM-SS cells) was greater than 200 µM, the “Intracellular levels of 27” value (CEM cells; incubation concentration 25 μM) was 10.5 pmol/10^6 cells and the “Intracellular levels of 27” value (CEM cells; incubation concentration 50 μM) was 15.6 pmol/10^6 cells. For the same compound, the “Intracellular levels of 27” value (CEM cells; incubation concentration 100 μM) was 19.7 pmol/10^6 cells, the “Half-Life, Serum Half-Lives of AZT Triphosphate Mimic Prodrugs” value (in vitro [2]) was greater than 48 h and the “Half-Life, Cell Extract Half-Lives of AZT 5'-α-P-borano-β,γ-(difluoromethylene) triphosphate Prodrugs” value (in vitro [3]) was 15 h. For the same compound, the “E. coli MIC” value (Escherichia coli; [4]) was 6 µg/mL, the “E. coli MIC” value (Escherichia coli; [5]) was “(8.8) uM” and the pIC50 (HIV-1RF) was 6.02.

For BP(=O)(OC[C@H]1O[C@@H](n2cc(C)c(=O)[nH]c2=O)C[C@H]1N=[N+]=[N-])OP(=O)(O)C(F)(F)P(=O)(O)Oc1ccccc1 (stereo partly drawn) [Compound 42, 3′-Azido-3′-deoxythymidine 5′-α-P-borano-β,γ-difluoromethylene-γ-O-phenyltriphosphate], the CC50 (CEM-SS cells) was 32.1 µM, the “Half-Life, Serum Half-Lives of AZT Triphosphate Mimic Prodrugs” value (in vitro [2]) was greater than 48 h and the pIC50 (HIV-1RF) was 5.60. For the same compound, the pKi [1] was 6.95.
